The supplement of paper PMC10307832

How the values were obtained:
Assay in all cases: relative viability (nuclei count vs DMSO), 5 days (fraction); higher = more cells survive
BI-2536 + Trametinib = compound: CC[C@@H]1C(=O)N(C)c2cnc(Nc3ccc(C(=O)NC4CCN(C)CC4)cc3OC)nc2N1C1CCCC1 [BI-2536] + CC(=O)Nc1cccc(-n2c(=O)n(C3CC3)c(=O)c3c(Nc4ccc(I)cc4F)n(C)c(=O)c(C)c32)c1 [Trametinib] (partner 0.02 µM)
In short: (§1)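 Nuclei were stained with Hoechst during a one-step fixation (final 0.05% Triton X-100, 1% formaldehyde, 1 ug/ml Hoechst) carried out 5 days after dosing, then counted on 4× images. The cells, lung cancer lines in 1536-well plates, had been dosed by pin tool the day after seeding with one drug alone or a fixed anchor-drug dose plus five library-drug doses (not always all listed) in √10 steps. Relative viability is the nuclei count in treated wells divided by that in vehicle wells, and each value is the median of duplicate plates.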

[1] = compound: CC1CC(=O)N(C2=CN=C(N=C2N1C3CCCC3)NC4=C(C=C(C=C4)C(=O)NC5CCN(CC5)C)OC)C [NPK76-II-72-1] + COc1cc2c(Oc3ccc(NC(=O)C4(C(=O)Nc5ccc(F)cc5)CC4)cc3F)ccnc2cc1OCCCN1CCOCC1 [Foretinib] (partner 0.25 µM)
In short: as §1

[2] = compound: CC1CC(=O)N(C2=CN=C(N=C2N1C3CCCC3)NC4=C(C=C(C=C4)C(=O)NC5CCN(CC5)C)OC)C [NPK76-II-72-1] + O=C(CCCCCCC(=O)Nc1ccccc1)NO [Vorinostat] (partner 1 µM)
In short: as §1

BI-2536 + Navitoclax = compound: CC[C@@H]1C(=O)N(C)c2cnc(Nc3ccc(C(=O)NC4CCN(C)CC4)cc3OC)nc2N1C1CCCC1 [BI-2536] + CC1(C)CCC(c2ccc(Cl)cc2)=C(CN2CCN(c3ccc(C(=O)NS(=O)(=O)c4ccc(N[C@H](CCN5CCOCC5)CSc5ccccc5)c(S(=O)(=O)C(F)(F)F)c4)cc3)CC2)C1 [Navitoclax] (partner 0.5 µM)
In short: as §1

Cell Line	relative viability (BI-2536 + Trametinib; first compound 0.01 µM)	relative viability (BI-2536 + Trametinib; first compound 0.03162 µM)	relative viability (BI-2536 + Trametinib; first compound 0.1 µM)	relative viability (BI-2536 + Trametinib; first compound 0.3162 µM)	relative viability (BI-2536 + Trametinib; first compound 1 µM)	relative viability ([1]; first compound 0.01 µM)	relative viability ([1]; first compound 0.03162 µM)	relative viability ([1]; first compound 0.1 µM)	relative viability ([1]; first compound 0.3162 µM)	relative viability ([1]; first compound 1 µM)	relative viability ([2]; first compound 0.01 µM)	relative viability ([2]; first compound 0.03162 µM)	relative viability ([2]; first compound 0.1 µM)	relative viability ([2]; first compound 0.3162 µM)	relative viability ([2]; first compound 1 µM)	relative viability (BI-2536 + Navitoclax; first compound 0.01 µM)	relative viability (BI-2536 + Navitoclax; first compound 0.03162 µM)	relative viability (BI-2536 + Navitoclax; first compound 0.1 µM)	relative viability (BI-2536 + Navitoclax; first compound 0.3162 µM)	relative viability (BI-2536 + Navitoclax; first compound 1 µM)
LU99A	0.525	0.647	0.562	0.196	0.192	0.774	0.765	0.936	0.503	0.979	0.437	0.492	0.62	0.535	0.528	0.811	0.86	0.323	0.108	0.132
LXF-289	0.68	0.654	0.64	0.12	0.102	0.945	1.03	0.896	0.948	0.961	0.772	0.714	0.703	0.655	0.756	0.949	0.858	0.658	0.064	0.0512
NCI-H23	0.372	0.464	0.201	0.112	0.14	0.955	0.88	0.954	0.99	0.973	0.609	0.657	0.637	0.515	0.627	0.894	0.632	0.567	0.192	0.127
NCI-H322M	0.535	0.473	0.564	0.435	0.361	1.06	1.09	0.976	0.923	0.978	0.886	0.808	0.861	1.01	0.913	1.3	1.29	1.2	0.608	0.333
NCI-H441	0.517	0.29	0.158	0.154	0.162	0.931	1.09	0.785	0.823	1.16	0.64	0.839	0.881	0.881	0.851	0.705	0.449	0.152	0.152	0.178
NCI-H460	0.205	0.154	0.0447	0.0185	0.0133	0.931	1.02	0.996	1.01	1.02	0.684	0.799	0.703	0.748	0.636	1.19	1.05	0.0795	0.0095	0.0103
NCI-H520	0.712	0.503	0.352	0.187	0.164	0.648	0.854	0.674	0.867	0.794	0.706	0.84	0.698	0.741	0.748	1.02	1.03	0.366	0.222	0.2
NCI-H596	0.758	0.798	0.721	0.414	0.256	0.907	1.01	0.824	0.819	0.842	0.718	0.615	0.696	0.631	0.723	0.997	1.21	0.978	0.19	0.184
NCI-H647	0.482	0.458	0.213	0.087	0.0808	1.12	1.19	1.35	1.04	1.19	0.575	0.568	0.4	0.668	0.725	1.05	0.883	0.378	0.0407	0.0778
NCI-H727	0.366	0.364	0.379	0.362	0.332	0.93	1.04	0.783	1.14	0.897	1.23	1.33	1.2	1.22	1.29	0.356	0.552	0.255	0.138	0.176
NCI-H838	0.532	0.625	0.478	0.081	0.0789	0.956	0.99	1.1	0.949	1.09	0.69	0.73	0.717	0.684	0.672	1.11	1.2	0.634	0.164	0.146
NCI-H1355	0.428	0.47	0.46	0.176	0.174	0.929	0.932	0.926	0.852	0.982	0.597	0.613	0.606	0.56	0.715	0.885	1.08	0.91	0.159	0.186
NCI-H1395	1.06	0.635	0.611	0.353	0.369	1.02	0.959	0.954	1.1	0.95	0.711	0.67	0.642	0.721	0.84	1.01	0.635	0.732	0.42	0.467
NCI-H1437	0.636	0.483	0.428	0.149	0.177	1.22	1.27	1.15	1.11	1.25	0.779	0.907	0.736	0.748	0.894	1.08	1.08	0.714	0.145	0.142
NCI-H1650	0.674	0.497	0.456	0.136	0.136	1.16	1.06	0.966	0.943	1.37	0.571	0.508	0.658	0.57	0.555	1.12	1.1	0.62	0.145	0.149
NCI-H1651	0.786	0.868	0.789	0.518	0.123	0.811	0.826	0.825	0.74	0.953	0.57	0.565	0.634	0.557	0.607	1.14	1.13	0.683	0.0829	0.055

Cell Line	relative viability (BI-2536 + Trametinib; first compound 0.01 µM)	relative viability (BI-2536 + Trametinib; first compound 0.03162 µM)	relative viability (BI-2536 + Trametinib; first compound 0.1 µM)	relative viability (BI-2536 + Trametinib; first compound 0.3162 µM)	relative viability (BI-2536 + Trametinib; first compound 1 µM)	relative viability ([1]; first compound 0.01 µM)	relative viability ([1]; first compound 0.03162 µM)	relative viability ([1]; first compound 0.1 µM)	relative viability ([1]; first compound 0.3162 µM)	relative viability ([1]; first compound 1 µM)	relative viability ([2]; first compound 0.01 µM)	relative viability ([2]; first compound 0.03162 µM)	relative viability ([2]; first compound 0.1 µM)	relative viability ([2]; first compound 0.3162 µM)	relative viability ([2]; first compound 1 µM)	relative viability (BI-2536 + Navitoclax; first compound 0.01 µM)	relative viability (BI-2536 + Navitoclax; first compound 0.03162 µM)	relative viability (BI-2536 + Navitoclax; first compound 0.1 µM)	relative viability (BI-2536 + Navitoclax; first compound 0.3162 µM)	relative viability (BI-2536 + Navitoclax; first compound 1 µM)
NCI-H1666	0.919	0.914	0.865	0.49	0.512	0.909	1.04	0.855	0.918	1.06	1.04	0.996	0.983	0.955	1.17	1.13	0.905	0.702	0.262	0.214
NCI-H1734	0.723	0.638	0.593	0.173	0.165	0.84	0.792	0.857	0.84	1.22	0.857	0.845	0.779	0.764	0.951	0.746	0.629	0.636	0.102	0.113
NCI-H1755	0.78	0.784	0.689	0.367	0.363	0.968	0.916	0.883	0.893	0.917	0.89	0.76	0.928	0.82	0.782	1	0.909	0.903	0.152	0.127
NCI-H1793	0.37	0.435	0.251	0.177	0.183	0.659	0.687	0.747	0.559	0.533	–	0.693	0.809	0.61	0.825	0.438	0.34	0.275	0.218	0.159
NCI-H1915	0.29	0.332	0.317	0.0844	0.0806	1.09	1.13	1.1	1.06	1.09	0.504	0.537	0.483	0.442	0.574	0.781	0.765	0.694	0.11	0.0514
NCI-H1944	0.392	0.427	0.439	0.144	0.186	0.9	0.936	0.899	0.808	0.992	0.49	0.583	0.508	0.485	0.646	1.05	1.05	1.05	0.377	0.157
NCI-H1975	0.252	0.363	0.295	0.12	0.122	1.01	0.981	0.826	0.929	0.943	0.676	0.736	0.662	0.694	0.712	1.12	1.08	0.932	0.182	0.17
NCI-H1993	0.448	0.404	0.56	0.379	0.398	0.801	0.791	0.868	0.604	0.808	0.486	0.777	0.784	0.725	0.728	0.984	0.926	0.492	0.553	0.549
NCI-H2009	0.262	0.246	0.336	0.131	0.159	0.843	1.25	1.22	1.21	1.23	0.696	0.713	0.705	0.728	0.77	1.14	1.05	0.7	0.121	0.0887
NCI-H2023	0.53	0.528	0.25	0.113	0.102	0.659	0.797	–	0.624	1.07	0.504	0.655	0.69	0.563	0.614	0.984	0.92	0.723	0.0972	0.0716
NCI-H2085	0.523	0.52	0.439	0.144	0.177	0.792	0.923	0.902	0.781	1.15	0.731	0.808	0.794	0.821	0.842	1.04	1.13	0.704	0.208	0.272
NCI-H2087	0.18	0.183	0.147	0.0838	0.0815	1.04	1.06	1.09	1.12	1.32	0.569	0.854	0.572	0.485	0.814	0.868	0.974	0.8	0.112	0.138
NCI-H2126	0.622	0.597	0.517	0.234	0.228	1.47	1.23	0.916	1.14	1.17	0.761	0.798	0.846	0.713	0.828	0.847	0.843	0.75	0.328	0.25
NCI-H2170	0.945	0.916	0.775	0.137	0.176	0.909	0.975	1.01	0.885	1.06	0.731	0.855	0.823	0.38	0.941	0.614	0.561	0.367	0.167	0.187
NCI-H2228	0.312	0.51	0.184	0.107	0.089	0.845	1.07	0.794	0.914	0.832	0.543	0.608	0.587	0.589	0.578	1.03	0.999	0.933	0.0826	0.121
